Data as given in ChEMBL document CHEMBL1201862, “PubChem BioAssay data set” (2004).
Counter-ions that a name gives are not always drawn.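 A five-concentration, 48-hour dose response in 96-well plates underlies each endpoint, interpolated linearly between surrounding concentrations. The concentration for 50% growth inhibition is given as GI50.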 Calls of active or inactive are those of the source. Rule as the data show it: active = GI50 up to about 1.1 µM and inactive = higher.

Assays:
Experiment in all cases: NCI anticancer screen, dose series, 48 h
OVCAR-3 = system: OVCAR-3
RXF 393 = system: RXF 393
MDA-MB-231 = system: MDA-MB-231
COLO 205 = system: COLO 205
OVCAR-5 = system: OVCAR-5
OVCAR-8 = system: OVCAR-8
HL-60 = system: HL-60
T47D = system: T47D
SK-OV-3 = system: SK-OV-3
SF-295 = system: SF-295
HOP-92 = system: HOP-92
HOP-62 = system: HOP-62
UO-31 = system: UO-31
TK-10 = system: TK-10
NCI/ADR-RES = system: NCI/ADR-RES
HCT-116 = system: HCT-116
SK-MEL-2 = system: SK-MEL-2
786-0 = system: 786-0
MCF7 = system: MCF7
KM12 = system: KM12

Measured: GI50

CC(C)=CCc1cc(C2COc3cc4c(c(O)c3C2=O)C=CC(C)(C)O4)c(O)cc1O (stereo not given)
inactive: OVCAR-3 14.3 µM | RXF 393 6.59 µM | MDA-MB-231 14.2 µM | COLO 205 20.2 µM | OVCAR-5 15.6 µM | OVCAR-8 21.5 µM | HL-60 8.63 µM | T47D 4.99 µM | SK-OV-3 15.7 µM | SF-295 17.8 µM | HOP-92 16.7 µM | HOP-62 17.8 µM | UO-31 12.8 µM | TK-10 16.8 µM | NCI/ADR-RES 22.6 µM | HCT-116 17.3 µM | SK-MEL-2 17.7 µM | 786-0 19 µM | MCF7 11.8 µM | KM12 14.9 µM

O=c1c2ccccc2[nH]c(=S)n1-c1ccc(/N=N/c2cccc3c(O)cccc23)cc1
inactive: OVCAR-3 62.2 µM | RXF 393 > 100 µM | MDA-MB-231 53.3 µM | COLO 205 32 µM | OVCAR-5 76.7 µM | OVCAR-8 > 100 µM | HL-60 54.8 µM | T47D > 100 µM | SK-OV-3 > 100 µM | SF-295 > 100 µM | HOP-92 > 100 µM | HOP-62 > 100 µM | UO-31 > 100 µM | TK-10 > 100 µM | NCI/ADR-RES > 100 µM | HCT-116 > 100 µM | SK-MEL-2 > 100 µM | 786-0 > 100 µM | MCF7 13.5 µM | KM12 > 100 µM

CC(C)C[C@H]1C(=O)N2CCC[C@H]2[C@]2(O)O[C@](NC(=O)[C@@H]3C=C4c5cccc6[nH]c(Br)c(c56)C[C@H]4N(C)C3)(C(C)C)C(=O)N12 [BROMOCRIPTINE MESYLATE]
inactive: OVCAR-3 8.87 µM | RXF 393 24.7 µM | MDA-MB-231 > 100 µM | COLO 205 5.27 µM | OVCAR-5 > 100 µM | OVCAR-8 > 100 µM | HL-60 2.51 µM | T47D 28.2 µM | SK-OV-3 > 100 µM | SF-295 39.8 µM | HOP-92 > 100 µM | HOP-62 > 100 µM | UO-31 4.61 µM | TK-10 15.1 µM | NCI/ADR-RES 9.35 µM | HCT-116 5.33 µM | SK-MEL-2 > 100 µM | 786-0 53.2 µM | MCF7 8.87 µM | KM12 9.82 µM
